From the supplement of paper PMC10307832

Experiments:
Test in all cases: relative viability (nuclei count vs DMSO), 5 days (fraction); higher = more cells survive
NCI-H1666 = test system: NCI-H1666
Outline: (§1)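 Relative viability is defined as nuclei in treated wells over nuclei in vehicle wells. Duplicate plates were run and medians reported. Lung cancer cell lines in 1536-well plates were dosed by pin tool one day after seeding, with one drug or with a fixed anchor-drug dose plus five library-drug doses (not always all listed) in √10 steps, and nuclei were counted after 5 days.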

H3255 = test system: H3255
Outline: as §1

NCI-H1755 = test system: NCI-H1755
Outline: as §1

NCI-H1650 = test system: NCI-H1650
Outline: as §1

A-427 = test system: A-427
Outline: as §1

ChaGo-K-1 = test system: ChaGo-K-1
Outline: as §1

NCI-H838 = test system: NCI-H838
Outline: as §1

NCI-H2228 = test system: NCI-H2228
Outline: as §1

SW 1573 = test system: SW 1573
Outline: as §1

NCI-H1944 = test system: NCI-H1944
Outline: as §1

NCI-H520 = test system: NCI-H520
Outline: as §1

NCI-H2347 = test system: NCI-H2347
Outline: as §1

NCI-H460 = test system: NCI-H460
Outline: as §1

NCI-H2085 = test system: NCI-H2085
Outline: as §1

NCI-H1355 = test system: NCI-H1355
Outline: as §1

NCI-H441 = test system: NCI-H441
Outline: as §1

NCI-H322M = test system: NCI-H322M
Outline: as §1

EKVX = test system: EKVX
Outline: as §1

NCI-H3122 = test system: NCI-H3122
Outline: as §1

LK-2 = test system: LK-2
Outline: as §1

NCI-H650 = test system: NCI-H650
Outline: as §1

NCI-H358 = test system: NCI-H358
Outline: as §1

NCI-H596 = test system: NCI-H596
Outline: as §1

**Q.** `Cc1cnc(-c2cnc(NCCNc3ccc(C#N)cn3)nc2-c2ccc(Cl)cc2Cl)[nH]1` + CCNC(=O)c1noc(-c2cc(C(C)C)c(O)cc2O)c1-c1ccc(CN2CCOCC2)cc1 [Luminespib] (partner 0.01 µM) was tested. Which relative viability (NCI-H1666; first compound 0.08 µM) did it give?
**A.** 1.04

**Q.** What about the relative viability (NCI-H1666; first compound 0.253 µM) of the same compound?
**A.** 1.04

**Q.** And the relative viability (NCI-H1666; first compound 0.8 µM)?
**A.** 1.04

**Q.** What about the relative viability (NCI-H1666; first compound 2.53 µM) of the same compound?
**A.** 1.08

**Q.** What about the relative viability (H3255; first compound 0.08 µM) of the same compound?
**A.** 0.96

**Q.** What about the relative viability (H3255; first compound 0.253 µM) of the same compound?
**A.** 0.933

**Q.** What about the relative viability (H3255; first compound 0.8 µM) of the same compound?
**A.** 0.977

**Q.** And the relative viability (H3255; first compound 2.53 µM)?
**A.** 0.835

**Q.** And the relative viability (NCI-H1755; first compound 0.08 µM)?
**A.** 0.614

**Q.** And the relative viability (NCI-H1755; first compound 0.253 µM)?
**A.** 0.327

**Q.** What about the relative viability (NCI-H1755; first compound 0.8 µM) of the same compound?
**A.** 0.59

**Q.** What about the relative viability (NCI-H1755; first compound 2.53 µM) of the same compound?
**A.** 0.385

**Q.** What about the relative viability (NCI-H1650; first compound 0.08 µM) of the same compound?
**A.** 0.195

**Q.** What about the relative viability (NCI-H1650; first compound 0.253 µM) of the same compound?
**A.** 0.207

**Q.** What about the relative viability (NCI-H1650; first compound 0.8 µM) of the same compound?
**A.** 0.164

**Q.** And the relative viability (NCI-H1650; first compound 2.53 µM)?
**A.** 0.193

**Q.** And the relative viability (A-427; first compound 0.08 µM)?
**A.** 0.954

**Q.** And the relative viability (A-427; first compound 0.253 µM)?
**A.** 0.828

**Q.** What about the relative viability (A-427; first compound 0.8 µM) of the same compound?
**A.** 0.814

**Q.** What about the relative viability (A-427; first compound 2.53 µM) of the same compound?
**A.** 0.916

**Q.** And the relative viability (ChaGo-K-1; first compound 0.08 µM)?
**A.** 0.622

**Q.** And the relative viability (ChaGo-K-1; first compound 0.253 µM)?
**A.** 0.608

**Q.** And the relative viability (ChaGo-K-1; first compound 0.8 µM)?
**A.** 0.603

**Q.** What about the relative viability (ChaGo-K-1; first compound 2.53 µM) of the same compound?
**A.** 0.538

**Q.** What about the relative viability (NCI-H838; first compound 0.08 µM) of the same compound?
**A.** 0.326

**Q.** What about the relative viability (NCI-H838; first compound 0.253 µM) of the same compound?
**A.** 0.287

**Q.** What about the relative viability (NCI-H838; first compound 0.8 µM) of the same compound?
**A.** 0.333

**Q.** And the relative viability (NCI-H838; first compound 2.53 µM)?
**A.** 0.301

**Q.** And the relative viability (NCI-H2228; first compound 0.08 µM)?
**A.** 0.131

**Q.** And the relative viability (NCI-H2228; first compound 0.253 µM)?
**A.** 0.156

**Q.** What about the relative viability (NCI-H2228; first compound 0.8 µM) of the same compound?
**A.** 0.133

**Q.** What about the relative viability (NCI-H2228; first compound 2.53 µM) of the same compound?
**A.** 0.159

**Q.** And the relative viability (SW 1573; first compound 0.08 µM)?
**A.** 0.162

**Q.** What about the relative viability (SW 1573; first compound 0.253 µM) of the same compound?
**A.** 0.277

**Q.** What about the relative viability (SW 1573; first compound 0.8 µM) of the same compound?
**A.** 0.344

**Q.** And the relative viability (SW 1573; first compound 2.53 µM)?
**A.** 0.234

**Q.** And the relative viability (NCI-H1944; first compound 0.08 µM)?
**A.** 0.831

**Q.** And the relative viability (NCI-H1944; first compound 0.8 µM)?
**A.** 0.861

**Q.** What about the relative viability (NCI-H1944; first compound 2.53 µM) of the same compound?
**A.** 0.678

**Q.** And the relative viability (NCI-H520; first compound 0.08 µM)?
**A.** 0.257

**Q.** What about the relative viability (NCI-H520; first compound 0.253 µM) of the same compound?
**A.** 0.203

**Q.** What about the relative viability (NCI-H520; first compound 0.8 µM) of the same compound?
**A.** 0.227

**Q.** And the relative viability (NCI-H520; first compound 2.53 µM)?
**A.** 0.208

**Q.** And the relative viability (NCI-H2347; first compound 0.08 µM)?
**A.** 0.267

**Q.** What about the relative viability (NCI-H2347; first compound 0.253 µM) of the same compound?
**A.** 0.266

**Q.** What about the relative viability (NCI-H2347; first compound 0.8 µM) of the same compound?
**A.** 0.346

**Q.** And the relative viability (NCI-H2347; first compound 2.53 µM)?
**A.** 0.518

**Q.** And the relative viability (NCI-H460; first compound 0.08 µM)?
**A.** 0.0473

**Q.** What about the relative viability (NCI-H460; first compound 0.253 µM) of the same compound?
**A.** 0.0403

**Q.** What about the relative viability (NCI-H460; first compound 0.8 µM) of the same compound?
**A.** 0.0345

**Q.** What about the relative viability (NCI-H460; first compound 2.53 µM) of the same compound?
**A.** 0.0279

**Q.** What about the relative viability (NCI-H2085; first compound 0.08 µM) of the same compound?
**A.** 0.456

**Q.** What about the relative viability (NCI-H2085; first compound 0.253 µM) of the same compound?
**A.** 0.486

**Q.** And the relative viability (NCI-H2085; first compound 0.8 µM)?
**A.** 0.462

**Q.** What about the relative viability (NCI-H2085; first compound 2.53 µM) of the same compound?
**A.** 0.339

**Q.** What about the relative viability (NCI-H1355; first compound 0.08 µM) of the same compound?
**A.** 0.704

**Q.** What about the relative viability (NCI-H1355; first compound 0.253 µM) of the same compound?
**A.** 0.698

**Q.** What about the relative viability (NCI-H1355; first compound 0.8 µM) of the same compound?
**A.** 0.677

**Q.** And the relative viability (NCI-H1355; first compound 2.53 µM)?
**A.** 0.744

**Q.** And the relative viability (NCI-H441; first compound 0.08 µM)?
**A.** 0.409

**Q.** And the relative viability (NCI-H441; first compound 0.253 µM)?
**A.** 0.342

**Q.** What about the relative viability (NCI-H441; first compound 0.8 µM) of the same compound?
**A.** 0.311

**Q.** What about the relative viability (NCI-H441; first compound 2.53 µM) of the same compound?
**A.** 0.276

**Q.** And the relative viability (NCI-H322M; first compound 0.08 µM)?
**A.** 0.969

**Q.** And the relative viability (NCI-H322M; first compound 0.253 µM)?
**A.** 0.808

**Q.** And the relative viability (NCI-H322M; first compound 0.8 µM)?
**A.** 0.857

**Q.** And the relative viability (NCI-H322M; first compound 2.53 µM)?
**A.** 1.03

**Q.** What about the relative viability (EKVX; first compound 0.08 µM) of the same compound?
**A.** 0.85

**Q.** What about the relative viability (EKVX; first compound 0.253 µM) of the same compound?
**A.** 0.824

**Q.** And the relative viability (EKVX; first compound 0.8 µM)?
**A.** 0.911

**Q.** What about the relative viability (EKVX; first compound 2.53 µM) of the same compound?
**A.** 0.88

**Q.** And the relative viability (NCI-H3122; first compound 0.08 µM)?
**A.** 0.124

**Q.** What about the relative viability (NCI-H3122; first compound 0.8 µM) of the same compound?
**A.** 0.0778

**Q.** What about the relative viability (NCI-H3122; first compound 2.53 µM) of the same compound?
**A.** 0.0737

**Q.** And the relative viability (LK-2; first compound 0.08 µM)?
**A.** 0.197

**Q.** And the relative viability (LK-2; first compound 0.253 µM)?
**A.** 0.227

**Q.** What about the relative viability (LK-2; first compound 0.8 µM) of the same compound?
**A.** 0.239

**Q.** And the relative viability (LK-2; first compound 2.53 µM)?
**A.** 0.205

**Q.** And the relative viability (NCI-H650; first compound 0.08 µM)?
**A.** 0.806

**Q.** What about the relative viability (NCI-H650; first compound 0.253 µM) of the same compound?
**A.** 0.768

**Q.** And the relative viability (NCI-H650; first compound 0.8 µM)?
**A.** 0.758

**Q.** And the relative viability (NCI-H650; first compound 2.53 µM)?
**A.** 0.76

**Q.** What about the relative viability (NCI-H358; first compound 0.08 µM) of the same compound?
**A.** 0.24

**Q.** What about the relative viability (NCI-H358; first compound 0.253 µM) of the same compound?
**A.** 0.317

**Q.** And the relative viability (NCI-H358; first compound 0.8 µM)?
**A.** 0.283

**Q.** And the relative viability (NCI-H358; first compound 2.53 µM)?
**A.** 0.0322

**Q.** What about the relative viability (NCI-H596; first compound 0.08 µM) of the same compound?
**A.** 1.06

**Q.** And the relative viability (NCI-H596; first compound 0.253 µM)?
**A.** 1.03

**Q.** What about the relative viability (NCI-H596; first compound 0.8 µM) of the same compound?
**A.** 1.05

**Q.** And the relative viability (NCI-H596; first compound 2.53 µM)?
**A.** 1.24
